Values quoted from earlier work as cited in patent US10481160B2, “Combined anticancer drug sensitivity-determining marker” (KEIO UNIVERSITY, priority 2012, dated 2019).

Test system: advanced/recurrent colorectal cancer

Compound | anti-tumor effect on colorectal cancer
N.N.O=C([O-])C1(C(=O)[O-])CCC1.[Pt+2] [CBDCA, carboplatin] | ineffective
O=C1[O][Pt]2([NH][C@@H]3CCCC[C@H]3[NH]2)[O]C1=O [L-OHP, Oxaliplatin] | exhibits anti-tumor effect
[NH2][Pt]([NH2])([Cl])[Cl] [CDDP, cisplatin] | ineffective
